Experiments:
[1] = test system: eHAP MUS81−/− cells; experiment: Cell viability assay (CellTiter-Glo), eHAP MUS81−/− cells; type: cell-based, human; conditions: for effect on viability, agent alone: single agent
Procedure: (§1) For analysis of cell viability following exposure to olaparib (Selleckchem), deoxyribonucleosides and DNPH1i (N6-benzyladenosine, Carbosynth), cells were seeded in 96-well plates at a density of 100-500 cells per well. Twenty-four hours post-seeding, drug treatments were initiated, and cells were continuously exposed until termination of the experiment. Cell viability was measured using CellTiter-Glo (Promega). The surviving fractions were measured, and drug sensitivity curves were plotted using GraphPad Prism. The following nucleosides were purchased from commercial sources: dU (2′-deoxyuridine), hdU (5-hydroxy-2′-deoxyuridine), hmdU (5-hydroxymethyl-2′-deoxyuridine), mdC (5-methyl-2′-deoxycytidine), hmdC (5-hydroxymethyl-2′-deoxycytidine), cadC (5-carboxy-2-deoxycytidine), fodC (5-formyl-2-deoxycytidine), dl (2′-deoxyinosine), dX (2′-deoxyxanthosine), 8odG (8-oxo-2′-deoxyguanosine), hmU (5 hydroxymethyluridine), hmC (5-hydroxymethyl-cytidine). fodU (5-formyl-2′-deoxyuridine) was synthesized as previously described (Guo et al Org. Biomol. Chem. 11, 1610-1613 (2013).

[2] = test system: eHAP MUS81−/−DNPH1−/− cells; experiment: Cell viability assay (CellTiter-Glo), eHAP MUS81−/−DNPH1−/− cells; type: cell-based, human; conditions: for sensitisation to PARP inhibitor by loss of DNPH1: vs MUS81 k/o cells, continuous treatment 6 days; for sensitivity of MUS81/DNPH1 k/o cells to nucleoside treatment (cell viability): nucleoside 200 nM, vs MUS81 k/o
Procedure: as §1

[3] = test system: eHAP WT and MUS81−/− isogenic cells; experiment: LD80 dose used in genome-wide CRISPR-Cas9 screen; type: cell-based, human; conditions: 10 days
Procedure: eHAP WT and MUS81−/− isogenic cells were transduced with a genome-wide lentiviral lentiCRISPRv2 sgRNA library (Doench et al 2016, PMID: 26780180) using multiplicity of infection (MOI) of ˜0.5 with a complexity of 400 cells/sgRNA. Transduced cells were selected with puromycin (0.4 mg/ml), expanded for 7 days, and sub-cultured in the presence or absence of an LD80 dose of olaparib (200 nM) or hmdC (1000 nM) for 10 days. Surviving cells were collected and genomic DNA was extracted using DNeasy Blood & Tissue Kit (Qiagen) supplemented with RNAse (Qiagen) according to the manufacturer's instructions. The CRISPR screens were carried out in biological triplicates. Libraries for Illumina sequencing were generated by two-step PCR amplification. In the first PCR, the sgRNA library was amplified and adaptors were added using nesting primers and the second PCR added barcodes, stagger regions, flow cell attachment and Illumina sequencing primers.
MUS81 k/o cells were transduced with the lentiviral-based Brunello genome-wide gRNA library (J. G. Doench et al Nat. Biotechnol. 34, 184-191 (2016)), followed by treatment with olaparib for 10 days. […] Bioinformatic analysis of the gRNA reads using the MAGeCK algorithm identified several novel, as well as previously reported, factors determining PARPi efficacy (FIG. 1).

[4] = test system: DLD1 BRCA2−/− cells; experiment: Cell viability assay, DLD1 BRCA2−/− cells; type: cell-based; conditions: olaparib 10 nM or hmdU 2 μM, 10 days
Procedure: as §1

[5] = test system: SUM149 BRCA1mut (parental) cells; experiment: Cell viability assay, SUM149 BRCA1mut (parental) cells; type: cell-based, human; conditions: olaparib 250 nM or hmdU 2 μM, 8 days
Procedure: as §1

[6] = target: T1, recombinant human DNPH1 (Homo sapiens, UniProt O43598); experiment: DNPH1 in vitro activity assay (RP-HPLC); type: biochemical; conditions: for DNPH1 activity towards nucleoside monophosphate substrates: DNPH1 4 μM, substrate 1 mM, 45 min, RP-HPLC
T1 construct: His6 (N); made in house; host or cells: E. coli BL21 (pET28a)
T1 sequence (O43598 1-174): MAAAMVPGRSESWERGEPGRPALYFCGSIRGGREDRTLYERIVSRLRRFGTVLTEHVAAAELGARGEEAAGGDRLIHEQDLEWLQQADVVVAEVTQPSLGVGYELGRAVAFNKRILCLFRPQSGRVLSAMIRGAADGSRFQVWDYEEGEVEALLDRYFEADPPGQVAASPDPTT
Procedure: HIS6DNPH1 and HIS6DNPH1E105Q, cloned in pET28a were transformed into BL21 cells. Transformed cells were inoculated into 2 L of TB media supplemented with 50 μg/ml kanamycin and incubated 37° C. until an OD600=1.0. IPTG (0.5 mM) was added and incubation continued for 4 hours. Cells were harvested by centrifugation and resuspended in lysis buffer (50 mM HEPES pH 7.5, 300 mM NaCl, 5% glycerol, 0.5 mM TCEP) supplemented with protease inhibitors (Complete EDTA-free tablets, Roche). Cells were lysed by passage through an Emulsiflex C5 (Avestin) at […], and the chromatin sheared by sonication at 50% maximum amplitude for 2×30 sec. Soluble proteins were isolated by ultracentrifugation (Beckman Type JLA25.50 rotor) at 60,000×g for 60 min (4° C.). Soluble extract was supplemented with 30 mM imidazole and incubated with 2 ml Ni-NTA beads (GE Healthcare) for 1 hour (4° C.). The beads were washed (50 mM HEPES pH 7.5, 300 mM NaCl, 30 mM imidazole, 5% glycerol, 0.5 mM TCEP) and protein eluted (50 mM HEPES pH7.5, 300 mM NaCl, 200 mM imidazole, 5% glycerol, 0.5 mM TCEP). The eluates were pooled, diluted dropwise to 100 mM NaCl (50 mM HEPES pH 7.5, 5% glycerol, 0.5 mM DTT) and DNPH1 further purified using a 5 ml HiTRAP QHP column (GE Healthcare), followed by a Superdex 200 Increase 10/300 column (GE Healthcare). Peak fractions were separated by SDS-PAGE and visualized with Instant Blue (Gentaur). Peak fractions were frozen in aliquots and stored at −80° C.
DNPH1 (4 μM) was incubated with nucleoside monophosphates (1 mM) in 20 mM sodium phosphate, pH 7.0, 150 mM NaCl, 2 mM MgCl2. After 45 min at room temperature the reaction was quenched by addition of 0.7% perchloric acid followed by immediate neutralization with addition of sodium acetate to 200 mM. Samples were diluted 1:10 into RP-Buffer (100 mM K2HPO4/KH2PO4, pH 6.5, 10 mM tetrabutylammonium bromide, 7% acetonitrile) and the nucleotides and reaction products separated from precipitated protein by filtration through a 0.22 μm centrifugal filter (Durapore-PVDF, Millipore). Samples of each reaction (5 nmol) were applied to a Zorbax SB-C18 column (4.6×250 mm, 3.5 μm, 80A pore size, Agilent Technologies), maintained at 30° C. and mounted on a Jasco HPLC system controlled by Chromnav software (v1.19, Jasco). Nucleoside monophosphates and reaction products were separated under isocratic flow by application of RP-Buffer at 1 mL/min. Absorbance data from the column eluent was continuously monitored between 200-400 nm (2 nm interval) using an MD-2010 photodiode array detector (JASCO). […] Peak integration of the absorbance data recorded at 260 nm was used to quantify the amount of substrate and product. […] The rate was determined by linear regression of a plot of product against reaction time.

[7] = test system: DCTD k/o cell lines; experiment: Cell viability, DCTD k/o cell lines; type: cell-based
Procedure: as §1

Compound | effect on viability, agent alone [1] | sensitisation to PARP inhibitor by loss of DNPH1 [2] | DNPH1 activity towards nucleoside monophosphate substrates [6] | other results
Cn1ncnc1[C@H]1c2n[nH]c(=O)c3cc(F)cc(c23)N[C@@H]1c1ccc(F)cc1 [talazoparib, (8S,9R)-5-Fluoro-8-(4-fluorophenyl)-9-(1-methyl-1H-1,2,4-triazol-5-yl)-2,7,8,9-tetrahydro-3H-pyrido[4,3,2-de]phthalazin-3-one] | limited effect on viability | sensitised | – | –
OC[C@H]1O[C@@H](n2cnc3c(NCc4ccccc4)ncnc32)[C@H](O)[C@@H]1O [DNPH1i, N6-benzyladenosine] | no effect on viability | – | – | effect of DNPH1i on viability (specificity control) ([1]; with hmdU, 6 days, cells with DNPH1 (text: wild-type)): dose-dependent decrease in viability; effect of DNPH1i on viability (specificity control) ([2]; with hmdU, 6 days, DNPH1 k/o cells): only a marginal effect
O=C(c1cc(Cc2n[nH]c(=O)c3ccccc23)ccc1F)N1CCN(C(=O)C2CC2)CC1 [olaparib, 1-(Cyclopropylcarbonyl)-4-[5-[(3,4-dihydro-4-oxo-1-phthalazinyl)methyl]-2-fluorobenzoyl]piperazine] | limited effect on viability | sensitized | – | LD80 dose [3]: 200 nM; effect on viability, agent alone [4]: limited effect on viability; effect on viability, agent alone [5]: limited effect on viability
C[C@]1(c2nc3c(C(N)=O)cccc3[nH]2)CCCN1 [veliparib, 2-[(2R)-2-Methyl-2-pyrrolidinyl]-1H-benzimidazole-4-carboxamide] | limited effect on viability | sensitised | – | –
O=c1ccn([C@H]2C[C@H](O)[C@@H](COP(=O)(O)O)O2)c(=O)[nH]1 [dUMP] | – | – | Little or no activity | –
O=c1[nH]c(=O)n([C@H]2C[C@H](O)C(COP(=O)(O)O)O2)cc1CO (some centres unmarked) [hmdUMP] | – | – | efficiently hydrolyzed | reaction rate of hmdUMP hydrolysis by DNPH1 ([6]; DNPH1 (2 μM), samples quenched at intervals up to 20 minutes, linear regression): 14.6 ± 0.4 µM/min
O=c1ccn([C@@H]2O[C@H](COP(=O)(O)O)[C@@H](O)[C@H]2O)c(=O)[nH]1 [UMP] | – | – | Little or no activity | –
O=Cc1cn([C@H]2C[C@H](O)[C@@H](CO)O2)c(=O)[nH]c1=O [fodU, 5-formyl-2′-deoxyuridine] | – | – | – | sensitivity of MUS81/DNPH1 k/o cells to nucleoside treatment (cell viability) ([2]; 6 days): to a lesser extent
Nc1nc(=O)n([C@H]2C[C@H](O)[C@@H](CO)O2)cc1CO [hmdC, 5-hydroxymethyl-2′-deoxycytidine] | – | – | – | LD80 dose [3]: 1000 nM; sensitivity of MUS81/DNPH1 k/o cells to nucleoside treatment (cell viability) ([2]; 6 days): to a lesser extent; resistance of DCTD k/o cells to nucleoside treatment [7]: completely resistant

— patent publication US20220339179A1, “TREATMENT OF HR DEFICIENT CANCER” (THE FRANCIS CRICK INSTITUTE LIMITED, priority 2019, published 2022)
